# Key:
# Type in all cases: cell-based
# IL-6 = IL-6 production by PHA stimulated human PBLs (ELISA); conditions: 24 h
# Experimental: (§1) The effect of tripterinin on the production of the cytokines IL-1b, IL2, IL-6, IFNγ, and TNFα was assessed by measurement of the concentration of these cytokines in PHA stimulated human PBL cultures. Cytokine levels were measured by standard ELISA methods using commercially available kits, as detailed in Example 6. Briefly, assay buffer was added to each of the wells of a microtiter plate containing pre-bound anti-cytokine antibody, followed by addition of standard or sample solution, diluted appropriately for the cytokine concentration measured, followed by a second reporter-labeled antibody specific against the anti-cytokine antibody. […]
# (§2) Cytokine measurements were carried out using commercially available ELISA assay kits (R&D Systems), in accordance with the supplier's protocols. In brief, 100 μl of the assay buffer supplied was added to each of the wells of a microtiter plate containing pre-bound anti-cytokine antibody, followed by 100 μl of standard or sample solution, diluted appropriately for the concentration range measured. […]
# (§3) Following two hours incubation, the plates were washed four times with assay buffer, and the second antibody, anti-anti-cytokine-horseradish peroxidase (HRP), was added to each well in a volume of 200 μl. […] Optical density was determined using a Molecular Devices microtiter plate reader.
# [1] = system: cultured human PBLs and mouse thymocytes; assay: Cytotoxicity, trypan blue vital dye staining; conditions: up to 10 μg/ml
# Experimental: (§4) Potential cytotoxicity of tripterinin was assessed by measurement of the effect of the compound on reduction of MTT (3-[4,5-Dimethylthiazol-2-yl]-2,5-diphenyltetrazolium bromide) by cultured cells, an index of cellular respiration and a sensitive assay for the detection of cytotoxicity (Green, et al.). Toxicity was evaluated in vitro in human PBLs and in mouse thymocytes, as detailed in Example 7. Sodium azide was used as a cytotoxic control. Cytotoxicity was also assessed using the standard method of trypan blue dye staining.
# Cytotoxicity was assessed in cultured human PBLs and mouse thymocytes. A stock solution of MTT (Sigma), 5 mg MTT/ml phosphate buffered saline, pH 7.4, was prepared and stored in the dark at 4° C. Following 21 hours incubation under conditions identical to those above, 25 μl of MTT solution was added to each culture well. After an additional 3 hour incubation, the experiment was terminated by addition of a solution of 10% sodium dodecyl sulfate in 0.01N HCl. Following overnight incubation at 37° C. (to solubilize the formazan crystals, the MTT reduction product), optical density was determined at 570-650 nm in a Molecular Devices microtiter plate reader. Data are expressed as the ratio of the optical density of the tripterinin treated sample to that of untreated controls. […] The standard method of trypan blue vital dye staining was also used to assess toxicity.
# IFNγ = IFNγ production by PHA stimulated human PBLs (ELISA); conditions: 24 h
# Experimental: as §1, §2, §3
# mouse thymocytes [2] = assay: Cytotoxicity, MTT reduction, mouse thymocytes; conditions: up to 10 μg/ml, highest tested, 24 h
# Experimental: as §4
# Potential cytotoxicity of tripterinin was assessed by measurement of the compound's effect on the reduction of MTT (3-[4,5-Dimethylthiazol-2-yl]-2,5-diphenyltetrazolium bromide) by cultured cells. MTT, a yellow-colored compound, is reduced by mitochondrial enzymes to form a purple crystalline reduction product (formazan), providing an index of cellular respiration as well as a sensitive assay for cytotoxicity (Green, et al.).
# Cytotoxicity was assessed in cultured human PBLs and mouse thymocytes. […] (to solubilize the formazan crystals, the MTT reduction product), optical density was determined at 570-650 nm in a Molecular Devices microtiter plate reader. Data are expressed as the ratio of the optical density of the tripterinin treated sample to that of untreated controls. […]
# mouse thymocytes [3] = assay: Inhibition of IL-1 action: IL-1 stimulated mouse thymocyte proliferation in presence of PHA
# Experimental: The ability of tripterinin and tripterifordin to suppress the cell-proliferative effect of IL-1 in mouse thymocytes, an index of IL-1 action (O'Gara), was also examined. In this study, mouse thymocytes in culture were stimulated with IL-1 in the presence of phytohemagglutinin (PHA) and increasing concentrations of purified tripterinin or tripterifordin. The cells were cultured for 72 hours, and during the last four hours, incubated with tritiated thymidine. DNA synthesis was assessed by measurement of radiolabeled thymidine incorporation.
# Mouse thymocytes were prepared, and the action of IL-1, which stimulates thymocyte proliferation, was measured using standard techniques (O'Gara). Three to six week old C3H/HeN mice were obtained from Simonsen Laboratories, Gilroy, Calif. and sacrificed by CO2 inhalation. Thymi were removed, separated from adherent non-thymic tissue, homogenized in Hank's balanced salt solution (Gibco) using a glass homogenizer, and centrifuged at 180×g for 10 minutes at 15° C. Following an additional wash in HBSS, the thymocytes were resuspended in RPMI 1640 tissue culture medium (Gibco) containing 50 μM 2-mercaptoethanol (Fisher), 2 mM glutamine (Gibco), 1 mM sodium pyruvate, non-essential amino acids, penicillin (100 U/ml) streptomycin (100 μg/ml), 10% heat inactivated fetal bovine serum and Phytohemagglutinin (PHA, Pharmacia, final concentration 10 μg/ml). Cells were cultured in round-bottom 96 well microtiter tissue culture plates, 6×10^5 cells per well in a volume of 100 μl. Tripterinin or tripterifordin was diluted in tissue culture medium and added to the wells in the presence and absence of IL-1 (recombinant human IL-1, R&D Systems catalog #201-LB, 0.1 ng/ml). Total volume was 150 μl per well.
# Plates were incubated for 72 hours (95% air/5% CO2, 37° C.). During the last four hours of incubation, [^3 H]-thymidine (Amersham, […]) was added (0.5 μCi per well). Cells were harvested onto Whatman 934-AH glass microfiber filters and counted in a Beckman LS 6000 scintillation counter. Results were expressed as counts per minute per well.
structure (smiles),measurement,setting,value
C[C@]12CCC[C@]3(COC1=O)[C@@H]2CC[C@@]12C[C@@H](CC[C@]13O)[C@](C)(O)C2 [tripterinin],decrease in IL-6 production,IL-6; 0.7 μg/ml tripterinin,83%
same,decrease in IL-6 production,IL-6; 3.13 μg/ml tripterinin,99%
same,cytotoxicity (trypan blue staining),[1],consistent with those from the MTT reduction assay
same,cytotoxicity (trypan blue staining),[1]; listed as Tripterinin,no significant toxicity
same,decrease in IFNγ production,IFNγ; 0.7 μg/ml tripterinin,84%
same,decrease in IFNγ production,IFNγ; 3.13 μg/ml tripterinin,80%
same,cytotoxicity (MTT reduction),mouse thymocytes [2],No significant toxicity
same,cytotoxicity (MTT reduction),mouse thymocytes [2]; listed as Tripterinin,no significant toxicity
same,concentration at which IL-1 stimulated cell proliferation was inhibited,"mouse thymocytes [3]; mouse thymocytes, IL-1 with PHA, FIG. 10",about 0.2 μg/ml
same,inhibition of IL-1 stimulated thymocyte proliferation,"mouse thymocytes [3]; tripterifordin 3.13 μg/ml, about 3 μg/ml, tripterinin 0.02 to 1 μg/ml",dose dependent inhibition
